In patent publication US6069172A, “(R)-2-(3-benzoylphenyl) propionic acid salts and pharmaceutical preparations containing them” (priority 1998, dated 2000):
Counter-ions that a name gives are not always drawn. Like-named read-outs stand apart in the source and are kept apart here.

What was measured:
[1] = system: carrageenin-induced pleural exudate; PMN cell migration; details: oral, cited from earlier work; for migration of cells into the pleural cavity: PMN cells vs monocytes, thought in 1975
hyperalgesia = assay: animal or person; details: for inhibitory effect on hyperalgesia: 25 to 750 mmoles/kg
Source text: In order to predict the therapeutic effect of the racemates in men, it is necessary to know how much the single enantiomers contribute to the global activity, using experimental models excluding metabolic bio-conversion. […] This model allows the contemporary evaluation of the inhibition of oedema formation and of hyperalgesia.

[2] = gastric ulcer-inducing properties in rats (ulcer score); assay type: in vivo; details: 40 mmoles/kg; rat
Source text: Guinea-pigs are a species naturally resistant to the gastrolesive action of NSAIDs, so that it is not possible to compare the two enantiomers in respect to this parameter in this species, unless using very high doses, having no predictive value. To this purpose, rats are necessarily, again, the chosen species, although the least suitable. […] The differences among the enantiomers and the racemate were statistically significant starting from the dose of […]: at this dose an "ulcer score" of 2 was evaluated for the (R) enantiomer, compared with "ulcer scores" of 3 and 4 for the racemate and the (S) enantiomer, respectively.

[3] = system: mouse peritoneal macrophages; assay: lipopolysaccharide-stimulated IL-1b release from mouse peritoneal macrophages; assay type: cell-based; details: Mus musculus, Peritoneal macrophage, read-out: concentration of statistically significant stimulation of IL-1b formation
oedema formation [4] = system: oedema formation
TXB2 synthesis = TXB2 synthesis inhibition in human blood; assay type: cell-based; details: index of platelet antiaggregating properties
[5] = system: ultra-violet radiation-induced epidermal erythema; details: topic; guinea pigs; cited from earlier work
[6] = system: interleukin IL-8 production; details: reduced from 53.8 pg/ml, p<0.1, cited from earlier work
[7] = guinea-pigs; cited from earlier work
pain perception = details: men; compared with (S) enantiomers; cited from earlier work
[8] = men, cited from earlier work
[9] = rats; in words; cited from earlier work
human PMN leukocytes = assay: [Ca^++ ]i increase induced by IL-8 in human PMN leukocytes; assay type: cell-based; details: IL-8 50 ng/ml, % of basal [Ca^++ ]i (basal 100%), no drug 302 ± 11
Procedure: The results reported in Table 1 are cumulative data obtained from 8 trials (8 donors who gave their explicit consent, 3 to 7 cells per specimen). […] The responses, expressed as percent of basal value of [Ca^++ ]i, are the mean from all responsive cells; standard error of the mean (±SEM) and number of replications (in brackets) are also reported. […] IL-8 concentration was 50 ng/ml.

[10] = system: Ca^++ channels, human PMN neutrophils; assay: competition study with lanthanum ions: [Ca^++ ]i increase induced by IL-8, role of Ca^++ channels; assay type: cell-based; details: ketoprofen L-lysine salt 10^-8 M; La^+++ 10 μM; IL-8 50 ng/ml; % of basal (100%)
Procedure: Results reported in Table 2 are the cumulative values from 3 trials (3 donors, 3-7 cells per specimen). […] Responses are expressed as percent of basal [Ca^++ ]i value and are the mean from the values of all responsive cells. Standard error of the mean (SEM) and number of replications (in brackets) are also reported. […] The concentration of ketoprofen L-lysine salt was 10^-8 M, that of La^+++ 10 μM, and that of IL-8 50 ng/ml.

human PMN neutrophils [11] = assay: [Ca^++ ]i increase induced by FMLP in human PMN neutrophils; assay type: cell-based; details: FLMP 10^-7 M; % of basal (100%); no treatment 208 ± 7
Source text: (§1) Results are expressed as percent of the basal value of [Ca^++ ]i and are the mean from the values of all responsive cells. Standard error of the mean (SEM) and number of replications (n, in brackets) are also reported.

human PMN neutrophils [12] = assay: [Ca^++ ]i increase induced by C5a in human PMN neutrophils; assay type: cell-based
Source text: as §1

human PMN neutrophils [13] = assay: IL-8-stimulated human PMN neutrophil degranulation (elastase release), FIG. 1; assay type: cell-based; details: IL-8 50 ng/ml, cytoclasin B 10^-5 M, 30 min 37° C; FIG. 1, ** p<0.05 against IL-8
Procedure: Human PMN neutrophils (10^7 /ml) were stimulated in the presence of cytoclasin B (10^-5 M) by adding IL-8 (50 ng/ml) and incubating them for 30 min at 37° C. La^+++ was added 5 min before IL-8 and the lysine salts of (R)- and (S)-ketoprofen 15 min before IL-8. Degranulation was evaluated based on the amount of elastase released in the cell-free surnatant and is expressed as DOD×10^3 /min.

Neutrophils = details: 10^-6 M, 10 min 37° C; FIG. 2, ** p<0.01
Source text: Results are expressed as the mean ±SD from 3 separated trials (** p<0.01 against each group).

oedema formation [14] = assay: animal or person; details: Cavia porcellus, read-out: dose from which oedema inhibition is statistically significant
PMN neutrophils = details: FLMP-stimulated vs other agonist-stimulated; cited from earlier work
MCP-1 and IL-8 release = details: comparative study; cited from earlier work
neutrophil = details: Ca^++ ionophore and FLMP; cited from earlier work
human synovial cells = details: stimulated by interleukin-1 and TNF-a; cited from earlier work

## CC(C(=O)O)c1ccc(-c2ccccc2)c(F)c1 (racemic) [flurbiprofen, 3-fluoro-4-phenylhydratropic acid]
[1]
  migration of cells into the pleural cavity: inhibit the migration of PMN cells, but not that of monocytes
  carrageenin-induced formation of pleural exudate: inhibited

## CC(C(=O)O)c1cccc(C(=O)c2ccccc2)c1 (racemic) [racemic ketoprofen L-lysine salt]
hyperalgesia
  inhibitory effect on hyperalgesia: constantly intermediate between those evaluated for the two enantiomers
[2]
  ulcer score: 3
[3]
  minimal effective concentration: 10 µM
Oedema formation [4]; 25 to 750 mmoles/kg
  inhibition of oedema formation: constantly intermediate between those evaluated for the two enantiomers

## CC(C(=O)O)c1cccc(C(=O)c2ccccc2)c1 (racemic) [racemic ketoprofen]
TXB2 synthesis
  IC50: 420 ± 40 µM
[5]
  Protection, UV radiation-induced epidermal erythema: 56.1±3.1%
[6]; 100 mg/kg
  interleukin IL-8 production: 16.9 pg/mL
[6]; 200 mg/kg
  interleukin IL-8 production: 22.4 pg/mL

## C[C@@H](C(=O)O)c1ccc(-c2ccccc2)c(F)c1 [(R)-flurbiprofen, 3-fluoro-4-phenylhydratropic acid]
[7]
  conversion of (R) into (S) enantiomer: < 5%
Pain perception
  inhibition of pain perception: efficacy at least similar to that of the (S) enantiomers
[8]
  conversion of (R) into (S) enantiomer: < 5%
[9]
  conversion of (R) into (S) enantiomer: completely converted

## CC(C)Cc1ccc([C@@H](C)C(=O)O)cc1 [(R)-ibuprofen, p-isobutylhydratropic acid]
[8]; in words
  conversion of (R) into (S) enantiomer: nearly completely converted
[9]
  conversion of (R) into (S) enantiomer: nearly completely converted

## C[C@H](C(=O)O)c1cccc(C(=O)c2ccccc2)c1 [(S)-ketoprofen L-lysine salt]
Human PMN leukocytes; drug 10^-6 M
  [Ca^++ ]i (% ± SEM): 163 ± 18%
Human PMN leukocytes; drug 10^-7 M
  [Ca^++ ]i (% ± SEM): 199 ± 13%
Human PMN leukocytes; drug 10^-8 M
  [Ca^++ ]i (% ± SEM): 183 ± 5%
Human PMN leukocytes; drug 10^-9 M
  [Ca^++ ]i (% ± SEM): 289 ± 19%
[10]
  La^+++ + IL-8 [Ca^++ ]i (% ± SEM): 166 ± 7%
Human PMN neutrophils [11]
  FMLP [Ca^++ ]i (% ± SEM): 214 ± 13%
Human PMN neutrophils [12]; C5a 10^-8 M, % of basal (100%), no treatment 198 ± 10
  C5a [Ca^++ ]i (% ± SEM): 150 ± 4%
Human PMN neutrophils [12]; C5a stimulation and treatment with the L-lysine salts
  percent of non responsive cells: 50%
Human PMN neutrophils [13]
  inhibitory effect on human PMN neutrophil degranulation (elastase release): specific inhibitory effects
hyperalgesia
  inhibitory effect on hyperalgesia: only a slight inhibitory effect on hyperalgesia
hyperalgesia; Cavia porcellus, read-out: dose with statistically significant inhibition of hyperalgesia
  minimal effective dose: 750000 µmol/kg
[2]
  ulcer score: 4
[3]
  minimal effective concentration: 10 µM
Neutrophils
  inhibitory effect on IL-8-stimulated chemotactic migration: specific inhibitory effects
Oedema formation [4]; dose range 25 to 750 mmoles/kg
  dose of maximal effect on oedema formation: 250 mmol/kg
Oedema formation [14]
  minimal effective dose: 75000 µmol/kg

## C[C@H](C(=O)O)c1cccc(C(=O)c2ccccc2)c1 [(S)-ketoprofen]
TXB2 synthesis
  IC50: 160 ± 40 µM
[5]
  Protection, UV radiation-induced epidermal erythema: 73.4±4.0%

## CC(C)C[C@H](NC(=O)OCC1c2ccccc2-c2ccccc21)C(=O)O [NPC-15669, N-Fmoc-L-leucine]
PMN neutrophils
  [Ca^++ ]i increase in PMN neutrophils: inhibited FLMP-stimulated, but not other agonist-stimulated [Ca^++ ]i increase

## C[C@@H]1C[C@H]2[C@@H]3CCC4=CC(=O)C=C[C@]4(C)[C@@]3(F)[C@@H](O)C[C@]2(C)[C@@]1(O)C(=O)CO [dexamethasone]
MCP-1 and IL-8 release
  inhibition of release of MCP-1 and IL-8: in an optimal manner

## CC(C(=O)O)c1cccc(Oc2ccccc2)c1 (stereo not drawn) [fenofren]
[1]
  migration of cells into the pleural cavity: inhibit the migration of PMN cells, but not that of monocytes
  carrageenin-induced formation of pleural exudate: inhibited

## O=C(O)c1ccccc1Nc1cccc(C(F)(F)F)c1 [flufenamic acid]
neutrophil
  inhibition of neutrophil activation / blockade of Ca^++ ion entry: inhibition of neutrophil activation

## COc1ccc2c(c1)c(CC(=O)O)c(C)n2C(=O)c1ccc(Cl)cc1 [indomethacin]
[1]
  migration of cells into the pleural cavity: inhibit the migration of PMN cells, but not that of monocytes
  carrageenin-induced formation of pleural exudate: inhibited
Human synovial cells
  IL-8 production in human synovial cells: not inhibited

## CN(Cc1cnc2nc(N)nc(N)c2n1)c1ccc(C(=O)N[C@@H](CCC(=O)O)C(=O)O)cc1 [metotrexate]
MCP-1 and IL-8 release
  inhibition of release of MCP-1 and IL-8: in a sub-optimal manner

## COc1ccc2cc([C@H](C)C(=O)O)ccc2c1 [naproxen]
Human synovial cells
  IL-8 production in human synovial cells: not inhibited

## COC(=O)C1=C(C)NC(C)=C(C(=O)OC)C1c1ccccc1[N+](=O)[O-] [nifedipine]
neutrophil
  inhibition of neutrophil activation / blockade of Ca^++ ion entry: completely inactive

## CN1C(C(=O)Nc2ccccn2)=C(O)c2ccccc2S1(=O)=O [piroxicam]
Human synovial cells
  IL-8 production in human synovial cells: not inhibited

## O=C([O-])CC(S)C(=O)[O-].[Na+].[Na+] (stereo not drawn) [sodium thiomalate]
MCP-1 and IL-8 release
  inhibition of release of MCP-1 and IL-8: in a sub-optimal manner

## CN1C(C(=O)Nc2nccs2)=C(O)c2ccccc2S1(=O)=O [sudoxicam]
[1]
  migration of cells into the pleural cavity: inhibit the migration of PMN cells, but not that of monocytes
  carrageenin-induced formation of pleural exudate: inhibited

## CC(C(=O)O)c1ccc(C(=O)c2ccccc2)s1 (stereo not drawn) [thioprofenic acid]
Human synovial cells
  IL-8 production in human synovial cells: not inhibited

## Cc1c(Cl)cccc1Nc1ccccc1C(=O)O [tolfenamic acid]
neutrophil
  inhibition of neutrophil activation / blockade of Ca^++ ion entry: inhibition of neutrophil activation
